Data as given in ChEMBL document CHEMBL1128571, “Acylshikonin analogues: synthesis and inhibition of DNA topoisomerase-I” (J Med Chem, 1995).
pIC50: −log10 of the molar value.

biological target: T1, DNA topoisomerase 1 (Homo sapiens, UniProt P11387); assay: Inhibitory activity against DNA topoisomerase-1 obtained from Hela cells; type: cell-based
T1 sequence (P11387 whole entry): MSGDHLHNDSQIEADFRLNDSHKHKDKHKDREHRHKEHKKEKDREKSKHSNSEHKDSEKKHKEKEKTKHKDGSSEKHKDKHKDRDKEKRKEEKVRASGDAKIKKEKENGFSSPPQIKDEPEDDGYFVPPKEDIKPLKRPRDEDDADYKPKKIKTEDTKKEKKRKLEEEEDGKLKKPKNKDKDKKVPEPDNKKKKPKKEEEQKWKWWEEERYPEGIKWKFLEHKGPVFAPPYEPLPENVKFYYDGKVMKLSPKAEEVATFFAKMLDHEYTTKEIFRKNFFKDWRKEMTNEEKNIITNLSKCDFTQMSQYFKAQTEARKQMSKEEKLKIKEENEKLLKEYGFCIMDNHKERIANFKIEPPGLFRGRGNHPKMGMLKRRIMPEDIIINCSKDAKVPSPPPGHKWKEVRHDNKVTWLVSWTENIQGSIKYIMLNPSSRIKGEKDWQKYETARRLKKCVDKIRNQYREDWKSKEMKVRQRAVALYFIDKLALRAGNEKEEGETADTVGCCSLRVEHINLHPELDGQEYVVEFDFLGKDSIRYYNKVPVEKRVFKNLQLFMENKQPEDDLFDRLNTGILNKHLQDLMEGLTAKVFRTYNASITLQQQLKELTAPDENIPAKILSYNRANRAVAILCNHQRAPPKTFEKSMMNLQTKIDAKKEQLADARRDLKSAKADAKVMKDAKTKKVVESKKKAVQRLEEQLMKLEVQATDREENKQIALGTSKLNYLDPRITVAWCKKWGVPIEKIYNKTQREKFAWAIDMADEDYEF

SMILES | pIC50
CCCCCC(=O)O[C@H](CC=C(C)C)C1=CC(=O)c2c(O)ccc(O)c2C1=O | 3.68
CCCCCCCCCCCC(=O)O[C@H](CC=C(C)C)C1=CC(=O)c2c(O)ccc(O)c2C1=O | < 3.20
CC/C=C/CC(=O)O[C@H](CC=C(C)C)C1=CC(=O)c2c(O)ccc(O)c2C1=O | 3.82
CCCCCCCC/C=C/CCCCCCCC(=O)O[C@H](CC=C(C)C)C1=CC(=O)c2c(O)ccc(O)c2C1=O | < 3.20
CC/C=C/C(=O)O[C@H](CC=C(C)C)C1=CC(=O)c2c(O)ccc(O)c2C1=O | 4.10
CCCCCCCCCCCCCCCCCC(=O)O[C@H](CC=C(C)C)C1=CC(=O)c2c(O)ccc(O)c2C1=O | < 3.20
CCCCCCCCCC(=O)O[C@H](CC=C(C)C)C1=CC(=O)c2c(O)ccc(O)c2C1=O | < 3.20
C=CCCC(=O)O[C@H](CC=C(C)C)C1=CC(=O)c2c(O)ccc(O)c2C1=O | 4.40
CC(C)=CC[C@@H](OC(=O)C(Cl)(Cl)Cl)C1=CC(=O)c2c(O)ccc(O)c2C1=O | 3.94
CC(C)=CC[C@@H](OC(=O)Cc1ccccc1)C1=CC(=O)c2c(O)ccc(O)c2C1=O | 3.65
CC(C)=CC[C@@H](OC(=O)c1ccccc1)C1=CC(=O)c2c(O)ccc(O)c2C1=O | 3.82
CCCC(=O)O[C@H](CC=C(C)C)C1=CC(=O)c2c(O)ccc(O)c2C1=O | 3.84
CC(C)=CC[C@@H](OC(=O)CCl)C1=CC(=O)c2c(O)ccc(O)c2C1=O | 3.86
CC(C)=CC[C@@H](OC(=O)/C=C(C)/C=C/C=C(C)/C=C/C1=C(C)CCCC1(C)C)C1=CC(=O)c2c(O)ccc(O)c2C1=O | < 3.20
CCCCC/C=C/C/C=C/CCCCCCCC(=O)O[C@H](CC=C(C)C)C1=CC(=O)c2c(O)ccc(O)c2C1=O | < 3.20
CCC(=O)O[C@H](CC=C(C)C)C1=CC(=O)c2c(O)ccc(O)c2C1=O | 4.36

SMILES | pIC50
CC(C)=CC[C@@H](OC(=O)\C=C(C)/C=C/C=C(C)/C=C/C1=C(C)CCCC1(C)C)C1=CC(=O)c2c(O)ccc(O)c2C1=O | < 3.20
C/C=C/C=C/C(=O)O[C@H](CC=C(C)C)C1=CC(=O)c2c(O)ccc(O)c2C1=O | 3.89
CCCCCCC(=O)O[C@H](CC=C(C)C)C1=CC(=O)c2c(O)ccc(O)c2C1=O | 3.20
C=CCC/C=C/C(=O)O[C@H](CC=C(C)C)C1=CC(=O)c2c(O)ccc(O)c2C1=O | 3.90
CCCCCCCCCCCCCCCC(=O)O[C@H](CC=C(C)C)C1=CC(=O)c2c(O)ccc(O)c2C1=O | < 3.20
CCC/C=C/C(=O)O[C@H](CC=C(C)C)C1=CC(=O)c2c(O)ccc(O)c2C1=O | 3.82
C=CCCCCC(=O)O[C@H](CC=C(C)C)C1=CC(=O)c2c(O)ccc(O)c2C1=O | 3.60
CCCCCCCCC(=O)O[C@H](CC=C(C)C)C1=CC(=O)c2c(O)ccc(O)c2C1=O | < 3.20
CCCCCCCC(=O)O[C@H](CC=C(C)C)C1=CC(=O)c2c(O)ccc(O)c2C1=O | < 3.20
CCCCC(=O)O[C@H](CC=C(C)C)C1=CC(=O)c2c(O)ccc(O)c2C1=O | 3.79
CC(C)=CC[C@@H](OC(=O)C(c1ccccc1)c1ccccc1)C1=CC(=O)c2c(O)ccc(O)c2C1=O | < 3.20
CCCCC/C=C/C/C=C/C/C=C/CCCCC(=O)O[C@H](CC=C(C)C)C1=CC(=O)c2c(O)ccc(O)c2C1=O | < 3.20
CC(=O)O[C@H](CC=C(C)C)C1=CC(=O)c2c(O)ccc(O)c2C1=O [ACETYLSHIKONIN] | 4.35
CC(C)=CC[C@@H](OC(=O)C=C(C)C)C1=CC(=O)c2c(O)ccc(O)c2C1=O [DIMETHYLACRYLSHIKONIN] | 4.11
CC(C)=CC[C@@H](OC(=O)C(C)C)C1=CC(=O)c2c(O)ccc(O)c2C1=O [ISOBUTYLSHIKONIN] | 4.08
CC(C)=CC[C@@H](O)C1=CC(=O)c2c(O)ccc(O)c2C1=O [SHIKONIN] | 3.68
